The source of these data is patent US10724072B2, “Use of phospho-Akt as a biomarker of drug response” (Basilea Pharmaceutica AG, priority 2011, dated 2020).

Holding throughout (format): cell-based, human
One assay has as its system CXF 243. Description: Colony outgrowth assay, patient-derived colorectal cancer xenograft cells. On the set-up: key to Response to vinblastine: BAL27862-sensitive tumour cells were those that had IC70 values in the low nanomolar range; BAL27862-resistant tumour cells had IC70 values >600 nanomolar. The note with it: CXF 243, ex vivo colony outgrowth. The method, then: (§1) Single cell suspensions of patient-derived tumour xenografts (maintained in nude mice) were prepared. For colony outgrowth assays, cells were plated in soft agar in 24-well plates according to the assay introduced by Hamburger & Salmon (Primary bioassay of human tumour stem cells, Science, 1977, 197:461-463). 2×10^4-6×10^4 cells in 0.2 mL medium containing 0.4% agar were plated out on a bottom layer of 0.75% agar. Test compounds were applied in 0.2 mL culture medium. Every 24-well plate contained untreated controls and samples in triplicates. Cultures were incubated at 37° C. and 7.5% CO2 for 5-28 days. 24 hours prior to analysis, vital colonies were stained with a solution of metabolizable tetrazolium salt (Alley M C et al, Life Sci. 1982, 31:3071-3078) and were counted with an automatic image analysis system (Omnicon 3600, Biosys GmbH).
(§2) Relative drug effects were expressed by the ratio of the mean number of colonies in the treated wells and the control wells. IC70-values were determined by plotting compound concentrations versus relative colony counts.
(§3) Based on colony outgrowth assays, using tumour cells derived from 8 patient-derived tumours maintained as xenografts in mice, BAL27862-sensitive or resistant tumour cells were identified from gastric cancer, colorectal cancer, melanoma, and lung cancer (see Table 1). In this table, BAL27862-sensitive tumour cells were those that had IC70 values in the low nanomolar range, while BAL27862-resistant tumour cells had IC70 values >600 nanomolar. Paclitaxel and vinblastine data, using the same ex vivo assay, was available for 7 of the 8 tumour models. Of these 7 models, all were resistant to treatment with paclitaxel, while 6 were sensitive to treatment with vinblastine.
A general note: In xenograft studies the graft and the host belong to different species.

The subject of the next assay is MEXF 276. Kind of assay: Colony outgrowth assay, patient-derived melanoma xenograft cells. On the set-up: key to Response to vinblastine: BAL27862-sensitive tumour cells were those that had IC70 values in the low nanomolar range; BAL27862-resistant tumour cells had IC70 values >600 nanomolar. The note with it: MEXF 276, ex vivo colony outgrowth. The method, then: as §1, §2, §3

In a further assay the test system is GFX 97. Description: Colony outgrowth assay, patient-derived gastric tumour xenograft cells. On the set-up: key to Response to vinblastine: BAL27862-sensitive tumour cells were those that had IC70 values in the low nanomolar range; BAL27862-resistant tumour cells had IC70 values >600 nanomolar. The note with it: GFX 97, ex vivo colony outgrowth. The method, then: as §1, §2, §3

The next assay relates to GFX 251. Described as above. The note with it: GFX 251, ex vivo colony outgrowth. Also noted: key to Response to vinblastine / Response to BAL27862: BAL27862-sensitive tumour cells were those that had IC70 values in the low nanomolar range; BAL27862-resistant tumour cells had IC70 values >600 nanomolar. The method, then:
as §1, §2, §3

In a further assay the test system is LXFE 397. Kind of assay: Colony outgrowth assay, patient-derived lung tumour xenograft cells. The note with it: LXFE 397, ex vivo colony outgrowth. The method, then:
as §1, §2
Based on colony outgrowth assays, using tumour cells derived from 8 patient-derived tumours maintained as xenografts in mice, BAL27862-sensitive or resistant tumour cells were identified from gastric cancer, colorectal cancer, melanoma, and lung cancer (see Table 1). […]

A further assay deals with LXFE 211. The assay is described as above. On the set-up: key to Response to BAL27862 / Response to vinblastine: BAL27862-sensitive tumour cells were those that had IC70 values in the low nanomolar range; BAL27862-resistant tumour cells had IC70 values >600 nanomolar. The note with it: LXFE 211, ex vivo colony outgrowth. The method, then:
as §1, §2, §3

Another assay relates to MEXF 1341. Description: Colony outgrowth assay, patient-derived melanoma xenograft cells. On the set-up: key to Response to BAL27862 / Response to vinblastine: BAL27862-sensitive tumour cells were those that had IC70 values in the low nanomolar range; BAL27862-resistant tumour cells had IC70 values >600 nanomolar. The note with it: MEXF 1341, ex vivo colony outgrowth. The method, then:
as §1, §2, §3

The next assay relates to CXF 1103. Description: Colony outgrowth assay, patient-derived colorectal cancer xenograft cells. Also noted: key to Response to BAL27862: BAL27862-sensitive tumour cells were those that had IC70 values in the low nanomolar range; BAL27862-resistant tumour cells had IC70 values >600 nanomolar. As to conditions: CXF 1103, ex vivo colony outgrowth. The method, then: as §1, §2, §3

The test system of assay [1] is HeLa cervical cancer cells. Kind of assay: Immunofluorescent staining of microtubules (anti-alpha-tubulin) in cultured cells. As to conditions: 50 nM, 24 hours treatment. The method, then: (§4) A549 human non-small cell lung cancer (NSCLC, ATCC reference number CCL-185) cells, HeLa cervical cancer cells (ATCC reference number CCL-2) and SKBR3 breast carcinoma cells (ATCC reference number HTB-30) were seeded at densities of 50% on round microscope coverslips and cultured for 24 hours in RPMI-1640 containing 10% FCS (also referred to as FBS) at 37° C., 5% CO2. Compounds to be tested were dissolved in DMSO. The cell culture medium was replaced with medium containing the diluted compound(s) (paclitaxel, vinblastine, colchicine and nocodazole were purchased from Sigma-Aldrich) or vehicle. After treatment for the times indicated in the Brief Description of the Figures, coverslips were washed and cells were fixed in methanol/acetone (1:1) for 5 minutes at room temperature and subsequently incubated in blocking buffer (0.5% BSA and 0.1% TX-100 in PBS) for 30 minutes at room temperature. Specimens were then incubated with anti-alpha-tubulin antibody (Sigma, 1:2000) for 1 hour at room temperature in blocking buffer. After several washing steps cells were incubated with AlexaFluor-488 goat-anti-mouse IgG (Molecular Probes, 1:3000) for 1 hour at room temperature followed by several washing steps with blocking buffer. Specimens were then mounted with ProLong Gold antifade (Molecular Probes), sealed with nail polish and examined with a Leica immunofluorescence microscope. Images were captured with a cooled CCD-camera and processed by ImageJ software.

In assay [2] the test system is SKBR3 breast cancer cells. The description is as above. The note with it: SKBR3, 50 nM, 24 hours treatment. The method, then:
as §4

A further assay deals with A549 NSCLC cells. Described as above. As to conditions: for Microtubule phenotype of mitotic or G2/M arrested cells: 24 hours treatment; for Effect on microtubule phenotype induced by BAL27862: 24 hours BAL27862 with the final 4 hours including the agent. The method, then: as §4

On to `N#CCCNc1nonc1-c1nc2ccccc2n1CC(=O)c1ccc(N)cc1` [BAL27862, 3-(4-{1-[2-(4-Amino-phenyl)-2-oxo-ethyl]-1H-benzoimidazol-2-yl}-furazan-3-ylamino)-propionitrile], for which the “IC70 BAL27862” value in the assay on CXF 243 is 696 nM; in the assay with MEXF 276 it was above 3500 nM; in the assay with GFX 97 it was above 3500 nM; in the assay with GFX 251 it was 485 nM; in the assay on LXFE 397 it was above 3500 nM; in the assay with LXFE 211, 21 nM. In addition, the “IC70 BAL27862” value worked out at 25 nM in the assay with MEXF 1341 and 22 nM with CXF 1103. The “Response to BAL27862” value in the assay on CXF 243 is on record as “resistant (BAL27862-resistant tumour cells had IC70 values >600 nanomolar)”; in the assay on MEXF 276 it was “resistant (BAL27862-resistant tumour cells had IC70 values >600 nanomolar)”; with GFX 97 it was “resistant (BAL27862-resistant tumour cells had IC70 values >600 nanomolar)”; in the assay with GFX 251, “sensitive”; with LXFE 397 it was “resistant (BAL27862-resistant tumour cells had IC70 values >600 nanomolar)”; with LXFE 211, “sensitive”. The “Response to BAL27862” value in the assay on MEXF 1341 and in the assay with CXF 1103 was “sensitive” throughout. Besides, the “Microtubule phenotype of mitotic or G2/M arrested cells” value in assay [1] was “dot-like structures”; in assay [2], “dot-like structures”; in the assay on A549 NSCLC cells (A549, 50 nM), “dot-like structures”. Moreover, the “Effect on microtubule phenotype induced by conventional microtubule targeting agents” value in the assay with A549 NSCLC cells (A549, 24 hours vinblastine, colchicine, paclitaxel or nocodazole with the final 4 hours including BAL27862) is reported as “disruption of the microtubule structures”.

As to `Nc1ccc(C(=O)Cn2c(-c3nonc3N)nc3ccccc32)cc1` [Compound B, 2-[2-(4-Amino-furazan-3-yl)-benzoimidazol-1-yl]-1-(4-amino-phenyl)-ethanone], the “Microtubule phenotype of mitotic or G2/M arrested cells” value in the assay on A549 NSCLC cells (A549, 80 nM) is “dot-like structures”.

Regarding `N#CCCNc1nonc1-c1nc2ccccc2n1CC(=O)c1ccc(N)nc1` [Compound C, 3-(4-{1-[2-(6-Amino-pyridin-3-yl)-2-oxo-ethyl]-1H-benzoimidazol-2-yl}-furazan-3-ylamino)-propionitrile], the “Microtubule phenotype of mitotic or G2/M arrested cells” value with A549 NSCLC cells (A549, 20 nM) is recorded as “dot-like structures”.

Turning to `COc1cc2c(c(OC)c1OC)-c1ccc(OC)c(=O)cc1[C@@H](NC(C)=O)CC2` [colchicine, reference compound], the “Effect on microtubule phenotype induced by BAL27862” value (“Effect … by BAL27862” for short) in the assay with A549 NSCLC cells (A549) is “no impact”.

Take `COC(=O)Nc1nc2ccc(C(=O)c3cccs3)cc2[nH]1` [nocodazole, reference compound]: the “Effect … by BAL27862” value in the assay on A549 NSCLC cells (A549) is “no impact”.

Take `CC(=O)O[C@H]1C(=O)[C@@]2(C)[C@H]([C@H](OC(=O)c3ccccc3)[C@]3(O)C[C@H](OC(=O)[C@H](O)[C@@H](NC(=O)c4ccccc4)c4ccccc4)C(C)=C1C3(C)C)[C@]1(OC(C)=O)CO[C@@H]1C[C@@H]2O` [paclitaxel, reference compound]: the Response to paclitaxel result in the assay with CXF 243, with MEXF 276, in the assay with GFX 97, in the assay with GFX 251, with LXFE 211 and in the assay on MEXF 1341 was “resistant (BAL27862-resistant tumour cells had IC70 values >600 nanomolar)” in each case. In the assay with CXF 1103, the Response to paclitaxel result was “resistant (BAL27862-resistant tumour cells had IC70 values >600 nanomolar)”. The “Effect … by BAL27862” value with A549 NSCLC cells (A549) is “no impact”.

For the molecule `CC[C@]1(O)C[C@@H]2CN(CCc3c([nH]c4ccccc34)[C@@](C(=O)OC)(c3cc4c(cc3OC)N(C)[C@H]3[C@@](O)(C(=O)OC)[C@H](OC(C)=O)[C@]5(CC)C=CCN6CC[C@]43[C@@H]65)C2)C1` [vinblastine, reference compound], the Response to vinblastine entry with CXF 243, with MEXF 276, in the assay with GFX 97, in the assay with GFX 251, in the assay on LXFE 211 and in the assay with MEXF 1341 was “sensitive” each time. Besides, the Response to vinblastine result in the assay on CXF 1103 is on record as “resistant (BAL27862-resistant tumour cells had IC70 values >600 nanomolar)”. Moreover, the “Effect … by BAL27862” value with A549 NSCLC cells (A549) was “no impact”.
